Source: US9125388B2, “Biological control” (Isis Innovation Limited, priority 1999, dated 2015)

Tests used:
Assay in all cases: Single chromosome crosses at 25° C., adult progeny by sex
[1] = tested on: Hsp26 tTa^(A) × tRe Msl-2^Nopu(A, B,)
[2] = tested on: Sxlpe tTa^(A, B, C, F) × tRe Msl-2^Nopu(B, C, D); format: in vivo, Drosophila melanogaster
Experimental: (§1) In “single chromosome crosses” at 25° C., ten to fifteen virgin females homozygous for the tTA construct and five to ten young males homozygous for the tRe construct were placed on food containing or lacking a tetracycline supplement.

[3] = tested on: Yp3 tTa^(A) × tRe Msl-1^Mpu(A, B,); format: in vivo, Drosophila melanogaster
Experimental: as §1

[4] = tested on: Actin5C tTa^(B, C, E) × tRe Msl-2^Nopu (B, C, D); format: in vivo, Drosophila melanogaster
Experimental: as §1

[5] = tested on: Yp3 tTa^(A) × tRe Msl-2^Nopu(A, B,); format: in vivo, Drosophila melanogaster
Experimental: as §1

[6] = tested on: Stwl tTa^(A, B, C) × tRe Msl-2^Nopu(B, C, D); format: in vivo, Drosophila melanogaster
Experimental: as §1

[7] = tested on: Stwl tTa^(A, B, C) × tRe Msl-1^Mpu(A, B); format: in vivo, Drosophila melanogaster
Experimental: as §1

[8] = tested on: Hsp26 tTa^(A) × tRe MSl-1^Mpu(A, B,); format: in vivo, Drosophila melanogaster
Experimental: as §1

[9] = tested on: Stwl tTa^(A, B, C) × tRe Ras64B^V12(B, C); format: in vivo, Drosophila melanogaster
Experimental: as §1

[10] = tested on: Hsp26 tTa^(A) × tRe Ras64B^V12(B, C,); format: in vivo, Drosophila melanogaster
Experimental: as §1

[11] = tested on: Sxlpe tTa^(A, B, C, F) × tRe Ras64B^V12(B, C); format: in vivo, Drosophila melanogaster
Experimental: as §1

[12] = tested on: Yp3 tTa^(A) × tRe Ras64B^V12(B, C,); format: in vivo, Drosophila melanogaster
Experimental: as §1

[13] = tested on: Actin5C tTa^(B, C, E) × tRe Ras64B^V12(B, C); format: in vivo, Drosophila melanogaster
Experimental: as §1

[14] = tested on: Sxlpe tTa^(A, B, C, F) × tRe Msl-1^Mpu(A, B); format: in vivo, Drosophila melanogaster
Experimental: as §1

[15] = tested on: Actin5C tTa^(B, C, E) × tRe Msl-1^MPu(A, B); format: in vivo, Drosophila melanogaster
Experimental: as §1

## CN(C)[C@@H]1C(O)=C(C(N)=O)C(=O)[C@@]2(O)C(O)=C3C(=O)c4c(O)cccc4[C@@](C)(O)[C@H]3C[C@@H]12 [Tetracycline, tetracycline]
[1]; Tetracycline 0.1 μg/ml in food
  Female progeny Total: 159
  Male progeny Total: 159
[1]; Tetracycline 1 μg/ml in food
  Female progeny Total: 135
  Male progeny Total: 122
[1]; Tetracycline 5 μg/ml in food
  Female progeny Total: 124
  Male progeny Total: 120
[2]; Tetracycline 0.1 μg/ml in food
  Female progeny Total: 647
  Male progeny Total: 562
[2]; Tetracycline 1 μg/ml in food
  Female progeny Total: 644
  Male progeny Total: 674
[2]; Tetracycline 5 μg/ml in food
  Female progeny Total: 615
  Male progeny Total: 742
[3]; Tetracycline 0.1 μg/ml in food
  Female progeny Total: 336
  Male progeny Total: 379
[3]; Tetracycline 1 μg/ml in food
  Female progeny Total: 319
  Male progeny Total: 347
[3]; Tetracycline 5 μg/ml in food
  Female progeny Total: 307
  Male progeny Total: 348
[4]; Tetracycline 0.1 μg/ml in food
  Female progeny Total: 548
  Male progeny Total: 637
[4]; Tetracycline 1 μg/ml in food
  Female progeny Total: 590
  Male progeny Total: 549
[4]; Tetracycline 5 μg/ml in food
  Female progeny Total: 615
  Male progeny Total: 522
[5]; Tetracycline 0.1 μg/ml in food
  Female progeny Total: 268
  Male progeny Total: 248
[5]; Tetracycline 1 μg/ml in food
  Female progeny Total: 324
  Male progeny Total: 362
[5]; Tetracycline 5 μg/ml in food
  Female progeny Total: 349
  Male progeny Total: 386
[6]; Tetracycline 0.1 μg/ml in food
  Female progeny Total: 436
  Male progeny Total: 491
[6]; Tetracycline 1 μg/ml in food
  Female progeny Total: 439
  Male progeny Total: 490
[6]; Tetracycline 5 μg/ml in food
  Female progeny Total: 434
  Male progeny Total: 481
[7]; Tetracycline 0.1 μg/ml in food
  Female progeny Total: 211
  Male progeny Total: 336
[7]; Tetracycline 1 μg/ml in food
  Female progeny Total: 236
  Male progeny Total: 257
[7]; Tetracycline 5 μg/ml in food
  Female progeny Total: 223
  Male progeny Total: 291
[8]; Tetracycline 0.1 μg/ml in food
  Female progeny Total: 328
  Male progeny Total: 368
[8]; Tetracycline 1 μg/ml in food
  Female progeny Total: 310
  Male progeny Total: 343
[8]; Tetracycline 5 μg/ml in food
  Female progeny Total: 313
  Male progeny Total: 347
[9]; Tetracycline 0.1 μg/ml in food
  Female progeny Total: 317
  Male progeny Total: 315
[9]; Tetracycline 1 μg/ml in food
  Female progeny Total: 307
  Male progeny Total: 328
[9]; Tetracycline 5 μg/ml in food
  Female progeny Total: 271
  Male progeny Total: 335
[10]; Tetracycline 0.1 μg/ml in food
  Female progeny Total: 235
  Male progeny Total: 210
[10]; Tetracycline 1 μg/ml in food
  Female progeny Total: 199
  Male progeny Total: 274
[10]; Tetracycline 5 μg/ml in food
  Female progeny Total: 156
  Male progeny Total: 154
[11]; Tetracycline 0.1 μg/ml in food
  Female progeny Total: 379
  Male progeny Total: 434
[11]; Tetracycline 1 μg/ml in food
  Female progeny Total: 386
  Male progeny Total: 389
[11]; Tetracycline 5 μg/ml in food
  Female progeny Total: 383
  Male progeny Total: 375
[12]; Tetracycline 0.1 μg/ml in food
  Female progeny Total: 322
  Male progeny Total: 352
[12]; Tetracycline 1 μg/ml in food
  Female progeny Total: 342
  Male progeny Total: 376
[12]; Tetracycline 5 μg/ml in food
  Female progeny Total: 316
  Male progeny Total: 354
[13]; Tetracycline 0.1 μg/ml in food
  Female progeny Total: 361
  Male progeny Total: 372
[13]; Tetracycline 1 μg/ml in food
  Female progeny Total: 427
  Male progeny Total: 383
[13]; Tetracycline 5 μg/ml in food
  Female progeny Total: 375
  Male progeny Total: 400
[14]; Tetracycline 0.1 μg/ml in food
  Female progeny Total: 296
  Male progeny Total: 520
[14]; Tetracycline 1 μg/ml in food
  Female progeny Total: 326
  Male progeny Total: 473
[14]; Tetracycline 5 μg/ml in food
  Female progeny Total: 304
  Male progeny Total: 535
[15]; Tetracycline 0.1 μg/ml in food
  Female progeny Total: 412
  Male progeny Total: 402
[15]; Tetracycline 1 μg/ml in food
  Female progeny Total: 321
  Male progeny Total: 351
[15]; Tetracycline 5 μg/ml in food
  Female progeny Total: 386
  Male progeny Total: 401
